We go through 11 molecules from patent EP0706514B1, “COMPOUNDS AND METHODS FOR INHIBITION OF HIV AND RELATED VIRUSES” (MEDIVIR AB, priority 1993, dated 1995).

Several values for one entry are separate records, joined by “and”; a condition that tells them apart may be missing. Equal entries are not always repeated. Where two headings read alike, the source gives them in different places.

The target of experiment [1] is T1, recombinant HIV-RT (Human immunodeficiency virus type 1 group M subtype B, UniProt P04585).
T1 construct: recombinant HIV-RT (diluted in virus disruption buffer to give 200.000 cpm)
As to the kind of experiment: biochemical. The protocol:
100 mM Tris-HCl pH 7.6, 100 mM KCl, 4 mM MgCl2, 4 mM DTT, 275 mg/ml BSA, 0.5 mg (rA)n(dT)12-18 and 0.3 mM ^3H-=dTTP (specific activity 18.000 cpm/mol). After 60 minutess of incubation 40 ml in duplicate were spotted on paper discs and washed in 5% TCA. After rinsing the paper discs in ethanol they were dried and counted in scintillation fluid.

Experiment [2] deals with HIV virus. As to the kind of experiment: Test A (XTT): reduction of virus-induced cytotoxicity in MT4 cells. It counts as cell-based. The note with it: for % inhibition: Test A. The protocol: Tests A, B, C, and D (XTT)
MT4 cells in a medium of RPMI 1640, 5% FCS, penicillin/streptomycin are adjusted to 2x10^5 cells/ml and seeded into microplates (96 wells/plate) […] cell suspension/well giving 2x10^4 cells/well. The compound to be tested is made into a 10 mg/ml mixture in DMSO and stored at -20°C. […] Further dilutions to […] are made in medium containing microplates. Fifty […] of the 400, 40, and 4 mg/ml are transferred to the cell-containing microplates with a multi-channel pipette (final concentration: […]). Finally, […] of virus suspension is added to each well (with a repetitive "Eppendorf" multipipett). […] The plate is put into a plastic bag and incubated for six days in CO2 atmosphere. To each well in the plate is added […] of XTT ((2,3-bis[2-methoxy-4-nitro-5-sulfophenyl]-5-[(phenylamin o)carbonyl]-2H-tetrazolium hydroxide), (1 mg/ml 0.01-0.02 mM N-metyl-phenazonium methosulfate). After six hours of incubation in CO2 atmosphere the plates are covered with adhesive plate sealers and gently mixed on a vortex. Optical densities are determined at a wavelength of 450 nm and a reference wavelength of 650 nm. The percent reduction of cytotoxocity caused by the virus infection is calculated as follows: (OD450 compound - OD450 inf cells)/(OD450 uninf cells - OD450 inf cells)x 100 [formula]

Setting [3] is: Test I, several values in a cell are repeat determinations, read-out: IC50 (converted).
Where [4] appears, read: Human immunodeficiency virus 1, MT4.
Where [5] appears, read: Human immunodeficiency virus 1, MT4, Test A, MT4 cells, 0.1 µg/ml, read-out: % inhibition.
[6] abbreviates: Human immunodeficiency virus 1, MT4, Test A, MT4 cells, 1 µg/ml.
The mark [7] stands for this setting: Human immunodeficiency virus 1, MT4, Test A, MT4 cells, 100 µg/ml, read-out: % inhibition.
Setting [8] is: IC50, Test I, several values in a cell are repeat determinations.

Take `O=C(Nc1ccc(Br)cn1)NC1CC1c1c(F)cccc1F` [Example 27, (1R,2S)-N-(cis-2-(2,6-Difluorophenyl)-cyclopropyl)-N'-5-bromopyrid-2-yl)-urea]: in experiment [1] (setting [3]), the IC50 is 1.36 nM and 1.63 nM.

Take `O=C(Nc1ccc(Cl)cn1)N[C@H]1C[C@H]1c1c(F)cccc1F`: the IC50 in experiment [1] (IC50, Test I) is 2.47 nM and 1.54 nM. Moreover, the “% inhibition” value in experiment [1] (Test I, 0.001 µg/ml) is reported as 62%; in experiment [1] (Test I, 0.01 µg/ml) it was 93%; in experiment [2] (MT4 cells, 0.001 µg/ml), 8%; in experiment [2] (MT4 cells, 0.01 µg/ml) it was 81%; in experiment [2] (MT4 cells, 1 µg/ml), 90%. In addition, the inhibition at 0.001 µg/mL in experiment [1] (Test I, 0.001 µg/ml) turned out to be 55%; in experiment [2] (Human immunodeficiency virus 1, MT4, Test A, MT4 cells, 0.001 µg/ml), 7%. In addition, the inhibition at 0.01 µg/mL amounted to 89% in experiment [1] (Test I, 0.01 µg/ml) and 80% in experiment [2] (Human immunodeficiency virus 1, MT4, Test A, MT4 cells, 0.01 µg/ml). For the same molecule, the inhibition at 0.1 µg/mL came out at 98% in experiment [1] (Test I, 0.1 µg/ml (column 4)); 100% in experiment [2] (setting [4]); 82% in experiment [2] (setting [5]). Further, the inhibition at 1 µg/mL in experiment [1] (Test I, 1 µg/ml) was found to be 100%; in experiment [2] (setting [6]), 86%. Also, in experiment [2] (setting [4]), the inhibition at 10 µg/mL came to 100%. Also, the inhibition at 100 µg/mL was found to be 100% in experiment [2] (setting [4]) and 3% in experiment [2] (setting [7]).

As for `O=C(Nc1ccc(Cl)cn1)N[C@@H]1C[C@@H]1c1c(F)ccc(O)c1Cl` (racemic) [Example 64, (+, -)-N-(cis-2-(2-chloro-3-hydroxy-6-fluorophenyl)cyclopropyl)-N'-(5-chloropyrid-2-yl)-urea], the half-inhibitory concentration (IC50) in experiment [1] (setting [8]) is 3.65 nM.

`N#Cc1ccc(NC(=O)N[C@@H]2C[C@@H]2c2c(F)cccc2F)nc1` (racemic) [Example 26, (+,-)-N-(cis-2-(2,6-Difluorophenyl)-cyclopropyl)-N'-(5-cyanopyrid-2-yl)-urea]: the IC50 in experiment [1] (setting [8]) was 28.6 nM and 31.8 nM.

With `COCOc1c(C(C)=O)ccc(F)c1[C@H]1C[C@H]1NC(=O)Nc1ccc(Cl)cn1` (racemic) [Example 56, (+,-)-N-(cis-2-(5-Acetyl-2-fluoro-6-methoxymethoxyphenyl)cyclopropyl)-N'-(5-chloropyrid-2-yl)-urea], the IC50 in experiment [1] (setting [8]) was 5.64 nM and 5.39 nM.

Consider `N#Cc1ccc(NC(=O)N[C@@H]2C[C@@H]2c2c(F)cccc2Cl)nc1` (relative stereo) [Example 33, N-(cis-2-(2-chloro-6-fluorophenyl)cyclopropyl)-N'-(5-cyanopyrid-2-yl)-urea], for which the half-inhibitory concentration (IC50) in experiment [1] (setting [8]) was 1.51 nM.

For the molecule `O=C(Nc1ccc(Cl)cn1)N[C@@H]1C[C@@H]1c1c(F)cccc1Cl` (relative stereo) [Example 34, N-(cis-2-(2-chloro-6-fluorophenyl)-cyclopropyl) -N'-(5-chloropyrid-2-yl)-urea], in experiment [1] (setting [8]), the IC50 was 1.18 nM.

On to `CCOc1ccc(F)c(CCNC(=O)Nc2ccc(Br)cn2)c1Cl`, for which the 50% inhibitory concentration (IC50) in experiment [1] (IC50, Test I) is 4.8 nM and 3.36 nM. Also, in experiment [1] (Test I, 0.001 µg/ml), the “% inhibition” value was 45% and the inhibition at 0.001 µg/mL amounted to 41%.

Regarding `CC(=O)c1ccc(F)c([C@H]2C[C@H]2NC(=O)Nc2ccc(Cl)cn2)c1O` (racemic) [Example 57, (+,-)-N-(cis-2-(5-Acetyl-2-fluoro-6-hydroxyphenyl)cyclopropyl)-N'-(5-chloropyrid-2-yl)-urea], in experiment [1] (setting [8]), the IC50 is 1.1 nM (2×) and 1.37 nM.

`O=C(NCCc1c(F)cccc1F)Nc1ccc(Cl)cn1`: the inhibition at 0.1 µg/mL in experiment [2] (setting [5]) was found to be 92%. Also, 1 µg/mL produced 87% inhibition in experiment [2] (setting [6]). The inhibition at 10 µg/mL in experiment [2] (Human immunodeficiency virus 1, MT4, Test A, MT4 cells, 10 µg/ml, read-out: % inhibition) worked out at 93%. Moreover, the inhibition at 100 µg/mL in experiment [2] (setting [7]) is 0%. Besides, the “% inhibition” value in experiment [2] (MT4 cells, 0.001 µg/ml) was 6%; in experiment [2] (MT4 cells, 0.01 µg/ml) it was 51% and 94%; in experiment [2] (MT4 cells, 1 µg/ml), 98%.

`CC(=O)c1ccc(F)c(CCNC(=O)Nc2ccc(Cl)cn2)c1O` [Example 58]: the IC50 in experiment [1] (setting [3]) was 108 nM.
